In article PMC10577221, “A cyclic peptide-based PROTAC induces intracellular degradation of palmitoyltransferase and potently decreases PD-L1 expression in human cervical cancer cells” (Frontiers in Immunology, 2023):

Tested on: C33A cells
Assay: Colony formation assay
Format: cell-based, human
Conditions: 14 days culture, compared to blank control
Procedure: Cells treated with drugs were separately seeded in a 6-well plate and cultured continuously for 14 days. During this period, the culture medium was changed every 2-3 days. Once visible cell colonies formed, the culture medium was removed, and the cells were fixed with 4% paraformaldehyde for 30 minutes, followed by staining with 0.1% crystal violet for 30 minutes. Finally, the colonies were counted and photographed using an optical microscope.

For N.N.[Cl][Pt][Cl] [cisplatin], the “number of C33A colonies, single agent” value was “decreased”.
